Values quoted from earlier work in patent US20100136089A1, “LOCATION OF FATTY ACID ESTERS ON TAMPONS AND TOXIN […]” (priority 2008, published 2010).

Tested on: humans
Details: stated as known

Q: Which toxicity to humans does the source give for `CCCCCCCCCCCC(=O)OCC(O)CO` (stereo not shown) [GML, glycerol monolaurate] here?
A: Its toxicity to humans is “non toxic to humans”.
